The nature of the data set: Experiments on use of pyridone compounds in emulsions. The class given is physicochemical. The text has this:
When an emulsion “breaks”, the oily and aqueous phases separate, leading to unwanted coalescence, i.e. a kind of confluence or coagulation of the constituents. This often results in a change in pH and may even cause the active ingredient to crystallize out. This disadvantageous property of pirfenidone is not discussed in said patents and patent applications and no teaching is offered to remedy the problem. Creams are merely cited as a possible topical form of application.

`Cc1ccc(=O)n(-c2ccccc2)c1` [pirfenidone, 5-methyl-1-phenyl-2-(1H)-pyridone]: the Behaviour in emulsions entry is “behave as emulsion breakers”.

The values above are taken from patent US20060039931A1, “Stable cream preparations of phenyl-pyridone compounds for topical application” (MEPHA AG, priority 2002, published 2006).
